According to US8877707B2, “Inhibitors of HCV NS5A” (Presidio Pharmaceuticals, Inc., priority 2010, dated 2014):
pEC50: −log10 of the molar value.

test system: HCV genotype 1b replicon in Huh 7 cells; assay: HCV replicon assay (1b_Huh-Luc/Neo-ET cell line, luciferase readout); format: cell-based; conditions: Hepatitis C virus, Huh-7; HCV 1b replicon; read-out: Inhibition of HCV genotype 1b
Method in brief: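 Replicon level was read as luciferase signal after 72 h compound exposure, triplicate wells, starting the day after cells were plated. Cell line: 1b_Huh-Luc/Neo-ET. Values normalised to control as percent, and EC50 fitted with a variable-slope sigmoid; determinations repeated.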

Question: COC(=O)N[C@H](C(=O)N1CCC[C@H]1c1ncc(-c2ccc3nc(-c4ccc(-c5cnc([C@@H]6CN(C(=O)OC)CCN6C(=O)[C@@H](NC(=O)OC)C(C)C)[nH]5)cc4)ccc3c2)[nH]1)C(C)C [compound 469] was tested. Which pEC50 did it give?
Answer: > 9.00

Question: COC(=O)N[C@H](C(=O)N1CCC[C@H]1c1ncc(-c2ccc3nc(-c4ccc(-c5cnc([C@@H]6CN(C(C)=O)CCN6C(=O)[C@@H](NC(=O)OC)C(C)C)[nH]5)cc4)ccc3c2)[nH]1)C(C)C [compound 493] was tested. Which pEC50 did it give?
Answer: > 9.00

Question: COC(=O)N[C@H](C(=O)N1CCC[C@H]1C(=O)NCc1ccc(-c2ccc3cc(-c4cnc([C@@H]5CCCN5C(=O)[C@@H](NC(=O)OC)C(C)C)[nH]4)ccc3n2)cc1)C(C)C [compound 546] was tested. Which pEC50 did it give?
Answer: 6.00 to 8.00

Question: With COC(=O)N[C@@H](C)C(=O)N1CCC[C@H]1C(=O)NCc1ccc(-c2ccc3cc(-c4cnc([C@@H]5CCCN5C(=O)[C@H](C)NC(=O)OC)[nH]4)ccc3c2)cc1 [compound 566] as the compound, how does the pEC50 read?
Answer: 6.00 to 8.00

Question: How did the pEC50 turn out when COC(=O)N[C@@H](C)C(=O)N1CCC[C@H]1C(=O)N[C@H](C)c1ccc(-c2ccc3cc(-c4cnc([C@@H]5CCCN5C(=O)[C@H](C)NC(=O)OC)[nH]4)ccc3c2)cc1 [compound 560] was run?
Answer: 6.00 to 8.00

Question: With COC(=O)N[C@@H](C(=O)N1CCC[C@H]1CNC(=O)c1ccc2cc(-c3ccc(-c4cnc([C@@H]5CCCN5C(=O)[C@H](NC(=O)OC)c5ccccc5)[nH]4)cc3)ccc2c1)c1ccccc1 [compound 577] as the compound, how does the pEC50 read?
Answer: > 9.00

Question: O=C(N[C@@H](C(=O)N1CCCC[C@H]1c1ncc(-c2ccc(-c3ccc4cc(-c5cnc([C@@H]6CCCN6C(=O)[C@H](NC(=O)OC6CCOCC6)c6ccccc6)[nH]5)ccc4n3)cc2)[nH]1)c1ccccc1)OC1CCOCC1 [compound 458] was tested. Which pEC50 did it give?
Answer: > 9.00

Question: How did the pEC50 turn out when COC(=O)N[C@H](C(=O)N1CCC[C@H]1CNC(=O)c1cnc2cc(-c3ccc4nc([C@@H]5CCCN5C(=O)[C@@H](NC(=O)OC)C(C)C)[nH]c4c3)ccc2c1)C(C)C [compound 554] was run?
Answer: 8.00 to 9.00

Question: With CC[C@H](C)[C@H](NC(=O)OC)C(=O)N1CCC[C@H]1c1ncc(-c2ccc3cc(-c4ccc5nc([C@@H]6CCCN6C(=O)[C@@H](NC(=O)OC)[C@@H](C)CC)[nH]c5n4)ccc3c2)[nH]1 [compound 521] as the compound, how does the pEC50 read?
Answer: > 9.00

same assay, conditions: Hepatitis C virus; Table 1; genotype 1b replicon, Huh 7 cells, 72 h, luciferase; read-out: Inhibition of HCV genotype 1b

Question: With COC(=O)N[C@H](C(=O)N1CCC[C@H]1c1ncc(-c2ccc3cc(-c4ccc5nc([C@@H]6CCCN6C(=O)[C@@H](NC(=O)OC)C6CCOCC6)[nH]c5n4)ccc3c2)[nH]1)C1CCOCC1 [compound 205] as the compound, how does the pEC50 read?
Answer: > 9.00

Question: How did the pEC50 turn out when CC[C@H](NC(=O)OC)C(=O)N1CCC[C@H]1c1ncc(-c2ccc3cc(-c4ccc5nc([C@@H]6CCCN6C(=O)[C@H](CC)NC(=O)OC)[nH]c5c4)ccc3c2)[nH]1 [compound 226] was run?
Answer: > 9.00

Question: With COC(=O)N[C@H](C(=O)N1CCC[C@H]1c1ncc(-c2ccc3cc(-c4ccc(-c5cnc([C@@H]6COCCN6C(=O)[C@H](NC(=O)OC)c6ccccc6)[nH]5)cc4)ccc3c2)[nH]1)C1CCOCC1 [compound 169] as the compound, how does the pEC50 read?
Answer: > 9.00

Question: How did the pEC50 turn out when COC(=O)N[C@H](C(=O)N1CCC[C@H]1c1ncc(-c2ccc3cc(-c4ccc(-c5cnc([C@@H]6CCCN6C(=O)[C@H](NC(=O)OC)c6ccccc6)[nH]5)cc4F)ncc3c2)[nH]1)C1CCOCC1 [compound 165] was run?
Answer: > 9.00

Question: COC(=O)N[C@H](C(=O)N1CCC[C@H]1c1nc(-c2ccc3nc(C45CCC(c6cnc([C@@H]7CCCN7C(=O)[C@@H](NC(=O)OC)C(C)C)[nH]6)(CC4)CC5)ccc3c2)c[nH]1)C(C)C [compound 262] was tested. Which pEC50 did it give?
Answer: > 9.00

Question: COC(=O)N[C@H](C(=O)N1CCOC[C@H]1c1nc2ccc(-c3ccc4cc(-c5cnc([C@@H]6CCCN6C(=O)[C@@H](NC(=O)OC)C6CCOCC6)[nH]5)ccc4c3)cc2[nH]1)C(C)C [compound 223] was tested. Which pEC50 did it give?
Answer: > 9.00

Question: COC(=O)N[C@H](C(=O)N1CCC[C@H]1c1nc(C2CNc3cc(-c4ccc(-c5cnc([C@@H]6CCCN6C(=O)[C@H](NC(=O)OC6CCOCC6)c6ccccc6)[nH]5)cc4)ccc3C2)c[nH]1)C(C)C (some centres unmarked) [compound 291] was tested. Which pEC50 did it give?
Answer: > 9.00

Question: How did the pEC50 turn out when COC(=O)N[C@@H](C(=O)N1CCC[C@H]1c1nc(-c2ccc3c(c2)CCN(c2ccc(-c4cnc([C@@H]5CCCN5C(=O)[C@H](NC(=O)OC)c5ccccc5)[nH]4)cc2)C3=O)c[nH]1)c1ccccc1 [compound 289] was run?
Answer: > 9.00

Question: How did the pEC50 turn out when COC(=O)N[C@H](C(=O)N1CCC[C@H]1c1nc(-c2ccc3cc(-c4ccc(-c5cnc([C@@H]6CCCN6C(=O)[C@H](NC(=O)OC)c6ccccc6)[nH]5)nc4)ccc3c2)c[nH]1)C(C)C [compound 63] was run?
Answer: > 9.00

Question: With COC(=O)NC(C(=O)N1CCC[C@H]1c1ncc(-c2ccc3nc(-c4ccc(-c5cnc([C@@H]6CCCN6C(=O)[C@@H](NC(=O)OC)C6CCOCC6)[nH]5)cc4F)ccc3c2)[nH]1)C1CCOC1 (some centres unmarked) [compound 164] as the compound, how does the pEC50 read?
Answer: > 9.00

Question: How did the pEC50 turn out when COC(=O)N[C@H](C(=O)N1CCC[C@H]1c1nc(-c2cnc3cc(-c4ccc(-c5cnc([C@@H]6CCCN6C(=O)[C@@H](NC(=O)OC)C6CCOCC6)[nH]5)cc4)ccc3c2)c[nH]1)C1CCOCC1 [compound 73] was run?
Answer: > 9.00

Question: CNC(=O)N[C@@H](C(=O)N1CCC[C@H]1c1ncc(-c2ccc(-c3nc4ccc(-c5cnc([C@@H]6CCCN6C(=O)[C@@H](NC(=O)OC)C(C)C)[nH]5)cc4o3)cc2)[nH]1)c1ccccc1 [compound 256] was tested. Which pEC50 did it give?
Answer: > 9.00

Question: COC(=O)N[C@H](C(=O)N1CCC[C@H]1c1nc(-c2ccc3cc(-c4ccc(-c5cnc([C@@H]6CCCN6C(=O)[C@H](NC(=O)N6CC[C@H](O)C6)c6ccccc6)[nH]5)cc4)ccc3c2)c[nH]1)C(C)C [compound 16] was tested. Which pEC50 did it give?
Answer: > 9.00

Question: With COC(=O)N[C@H](C(=O)N1CCC[C@H]1c1ncc(-c2ccc3cc(-c4ccc(-c5cnc([C@@H]6CCCN6C(=O)[C@H](NC(=O)OC)c6ccccc6)[nH]5)c(F)c4)ncc3c2)[nH]1)C(C)C [compound 155] as the compound, how does the pEC50 read?
Answer: > 9.00

Question: How did the pEC50 turn out when COC(=O)N[C@H](C(=O)N1CCC[C@H]1c1ncc(-c2ccc3cc(-c4ccc5nc([C@@H]6CCCN6C(=O)[C@@H](NC(=O)OC)C6CCOCC6)[nH]c5n4)ccc3c2)[nH]1)C(C)C [compound 202] was run?
Answer: > 9.00

Question: COC(=O)N[C@H](C(=O)N1CCC[C@H]1c1ncc(-c2ccc(-c3ccc4cc(-c5c[nH]c([C@@H]6CCCN6C(=O)[C@H](NC(=O)NC(C)(C)C)c6ccccc6)n5)ccc4c3)cc2)[nH]1)C(C)C [compound 23] was tested. Which pEC50 did it give?
Answer: > 9.00

Question: COC(=O)N[C@@H](C)C(=O)N1CCC[C@H]1c1nc(-c2ccc3c(c2)CCN(c2c(F)cc(-c4cnc([C@@H]5CCCN5C(=O)[C@H](C)NC(=O)OC)[nH]4)cc2F)C3)c[nH]1 [compound 272] was tested. Which pEC50 did it give?
Answer: > 9.00

Question: How did the pEC50 turn out when COC(=O)N[C@H](C(=O)N1CCC[C@H]1c1nc2ccc3cc(-c4ccc5cc(-c6cnc([C@@H]7CCCN7C(=O)[C@H](NC(=O)OC)c7ccccc7)[nH]6)ccc5n4)ccc3c2[nH]1)C(C)C [compound 298] was run?
Answer: > 9.00

Question: With COC(=O)N[C@H](C(=O)N1CCC[C@H]1c1ncc(-c2ccc(-c3ccc4cc(-c5c[nH]c([C@@H]6CCCN6C(=O)[C@H](NC(=O)OC)c6ccccc6)n5)ccc4c3)c(C)c2)[nH]1)C(C)C [compound 87] as the compound, how does the pEC50 read?
Answer: > 9.00

Question: COC(=O)N[C@H](C(=O)N1CCOC[C@H]1c1ncc(-c2ccc3cc(-c4ccc5nc([C@@H]6CCCN6C(=O)[C@@H](NC(=O)OC)C(C)C)[nH]c5c4)ccc3c2)[nH]1)C(C)C [compound 220] was tested. Which pEC50 did it give?
Answer: > 9.00

Question: COC(=O)N[C@H](C(=O)N1CCC[C@H]1c1ncc(-c2ccc3nc(-c4ccc(-c5cnc([C@@H]6CCCN6C(=O)[C@@H](NC(=O)OC)C(C)C)[nH]5)c(F)c4)ccc3c2)[nH]1)C(C)C [compound 126] was tested. Which pEC50 did it give?
Answer: > 9.00

Question: With C#CC[C@H](NC(=O)OC)C(=O)N1CCC[C@H]1c1ncc(-c2ccc3nc(-c4ccc(-c5cnc([C@@H]6CCCN6C(=O)[C@@H](NC(=O)OC)C6CCOCC6)[nH]5)cc4F)ccc3c2)[nH]1 [compound 162] as the compound, how does the pEC50 read?
Answer: > 9.00

Question: With COC(=O)N[C@H](C(=O)N1CCC[C@H]1c1nc(-c2ccc3cc(-c4ccc(-c5cnc([C@@H]6CCCN6C(=O)[C@H](NC(=O)OC)c6ccccc6)[nH]5)cc4C)ccc3c2)c[nH]1)C(C)C [compound 69] as the compound, how does the pEC50 read?
Answer: > 9.00

Question: With COC(=O)N[C@H](C(=O)N1CCC[C@H]1c1ncc(-c2ccc3cc(-c4ccc5nc([C@@H]6CCCN6C(=O)[C@H](NC(=O)OC)c6ccccc6)[nH]c5n4)ccc3c2)[nH]1)C(C)C [compound 199] as the compound, how does the pEC50 read?
Answer: > 9.00

Question: With COC(=O)N[C@H](C(=O)N1CCC[C@H]1c1ncc(-c2ccc3cc(-c4ccc(-c5cnc([C@@H]6CCCN6C(=O)[C@H](NC(=O)OC(C)(C)C)c6ccccc6)[nH]5)cc4)ncc3c2)[nH]1)C1CCOCC1 [compound 118] as the compound, how does the pEC50 read?
Answer: > 9.00

Question: With COC(=O)N[C@H](C(=O)N1CCC[C@H]1c1ncc(-c2ccc(-c3ccc4cc(-c5c[nH]c([C@@H]6CCCN6C(=O)[C@@H](NC(=O)OC)C6CCOCC6)n5)cnc4c3)nc2)[nH]1)C(C)C [compound 61] as the compound, how does the pEC50 read?
Answer: > 9.00

same assay, conditions: Hepatitis C virus; Table 2; genotype 1b replicon, Huh 7 cells, 72 h, luciferase; read-out: Inhibition of HCV genotype 1b

Question: CC[C@H](C)[C@H](NC(=O)OC)C(=O)N1CCC[C@H]1c1ncc(-c2ccc3cc(-c4ccc5nc([C@@H]6COCCN6C(=O)[C@@H](NC(=O)OC)[C@@H](C)CC)[nH]c5c4)ccc3c2)[nH]1 [compound 353] was tested. Which pEC50 did it give?
Answer: > 9.00

Question: COC(=O)N[C@H](C(=O)N1CCC[C@H]1c1ncc(-c2ccc3cc(-c4cc5[nH]c([C@@H]6CCCN6C(=O)[C@@H](NC(=O)OC)C6CCCCC6)nc5cn4)ccc3c2)[nH]1)C1CCCCC1 [compound 417] was tested. Which pEC50 did it give?
Answer: > 9.00

Question: With CC[C@@H](C)[C@H](NC(=O)OC)C(=O)N1CCC[C@H]1c1ncc(-c2ccc3cc(-c4ccc5nc([C@@H]6CCCN6C(=O)[C@@H](NC(=O)OC)[C@H](C)CC)[nH]c5c4)nnc3c2)[nH]1 [compound 396] as the compound, how does the pEC50 read?
Answer: > 9.00

Question: COC(=O)N[C@H](C(=O)N1CCC[C@H]1c1ncc(-c2ccc3cc(-c4cc5[nH]c([C@@H]6CCCN6C(=O)[C@@H](NC(=O)OC)C6CCCC6)nc5cn4)ccc3c2)[nH]1)C1CCCC1 [compound 411] was tested. Which pEC50 did it give?
Answer: > 9.00

Question: COC(=O)N[C@H](C(=O)N1CCC[C@H]1c1ncc(-c2ccc3cc(-c4ccc5nc([C@@H]6COCCN6C(=O)[C@@H](NC(=O)OC)[C@@H](C)OC)[nH]c5c4)ccc3c2)[nH]1)[C@@H](C)OC [compound 354] was tested. Which pEC50 did it give?
Answer: > 9.00

Question: With COC(=O)N[C@H](C(=O)N1CCC[C@H]1c1ncc(-c2ccc3cc(-c4ccc5nc([C@@H]6CCCN6C(=O)[C@@H](NC(=O)OC)C6CCCCC6)[nH]c5c4)ncc3c2)[nH]1)C1CCCCC1 [compound 379] as the compound, how does the pEC50 read?
Answer: > 9.00
